Consider one substance from EP0981359B1, “COMPOSITIONS FOR ENHANCING IMMUNOSUPPRESSANTS' PHARMACOLOGICAL ACTIVITIES” (Zavialov, Vladimir Petrovich, priority 1997, dated 1998).

pKi: −log10 of the molar value.

The subject of experiment [1] is human T-lymphoblastoid cell line MT-4. Briefly: proliferation of IFN-sensitive T-lymphoblastoid cell line. The class given is cell-based. The following applies: MT-4 cell line.
In the next experiment the test system is human peripheral cells. Briefly: mitogen (PHA)-driven proliferation, [3H]-thymidine incorporation. The class given is cell-based. The procedure: Ninety five ml of blood were taken from each of 10 volunteer donors, and 5 ml of 3-5% EDTA were added to the blood immediately and mixed carefully to prevent coagulation. The blood was than mixed with the equal volume of medium 199 or with buffered physiological salt solution. Ficoll-Paque (Pharmacia) was poured into plastic centrifuge test-tubes with caps (Costar) (3 ml of Ficoll-Paque per each test-tube, volume of a test-tube - 15 ml, diameter - 13 mm at room temperature, and then 6-7 ml of diluted blood were carefully layered on top). The test-tubes were centrifuged at 20 °C for 40 minutes, at 400 g, with the brake of centrifuge being switched off. The mononuclear cells formed a layer on the border of the liquid division and the cells were collected with a Pasteur pipette into a centrifuge test-tube with 5 ml of RPMI 1640, containing 2% of inactivated fetal serum and penicillin (100 units/ml) with streptomycin (100 units/ml). Then the cells were washed with physiological buffer solution (PBS) three times with centrifuging at 400 g for 5 minutes at the temperature of +8 °C. When the concentration of the cells was 2.5^·10^6 cells/ml, they were placed in RPMI 1640 medium, containing 5% of fetal serum (heated for 30 minutes at 56 °C), 100 units/ml of penicillin, 100 units/ml of streptomycin, 1 ml 200 mM of L-glutamine per 100 ml of serum. All the reagents were produced by Gibco. The cells were dropped into a 96-well plate (100 µl per each plate) with mitogen - phytohemagglutinin (PHA) (final concentration - […]), the preparations under study and immunosuppressants (cyclosporin A, FK506 or rapamycin) in concentration - […]) were pipetted into the tubes beforehand. The plate was placed in a CO2-incubator at 5% CO2 with humid atmosphere for 72 hours. 12-18 hours before the completion of the incubation […] of [^3H]-thymidine was added into each well. […] The number of disintegrations per minute was counted using a Minibeta counter (LKB). The stimulation index was determined by arithmetical mean of at least three parallel measurements ±SD to the corresponding control.
(Uptake of a labelled nucleoside into DNA is a usual measure of proliferation.)

The target in experiment [2] is common receptors on mouse thymocytes. The following applies: cited from earlier work.

As to “α-peptoferon: octapeptide corresponding to the high-affinity binding/anti-lymphoproliferative site of hIFN-α2 (TMα1-like sequence 130-137) (LKEKKYSP; UniProt P01563 153-160, looked up, fragment)”, in experiment [1], the “effect on the proliferation of MT-4” value is “inhibited by rhIFN-α2 and a-peptoferon in a dose-dependent fashion”; the “effect on the proliferation of MT-4 compared with rhIFN-α2” value was “comparable effects”. The “effect on mitogen (PHA)-driven proliferation (lymphoproliferative response)” value in the experiment with human peripheral cells (PHA, 72 hours, no immunosuppressant) was “inhibited by rhIFN-α2 and a-peptoferon in a dose-dependent fashion”. Besides, the “effect on PHA-driven proliferation compared with rhIFN-α2” value with human peripheral cells (PHA, no immunosuppressant) was “comparable effects”. In addition, in the experiment with human peripheral cells (in the presence of 20 mM CsA in cultural medium, rhIFN-α2 at 10^-16 M), the “effect on PHA-driven proliferation in the presence of cyclosporin A” value is reported as “comparable effect”. Besides, in experiment [2] (mouse thymocytes, read-out: Ki of recombinant (r)hIFN-α2 binding by α-peptoferon), the pKi is about 12.00. Further, the “affinity to the specific receptors in comparison with recombinant hIFN-α2” value in experiment [2] (previous studies) is on record as “the same or higher affinity”.

Broadly, the pKi is the Ki on a negative log10 scale, so that one unit is a factor of ten.
